{"source": "patent US20230149358A1", "about": "“COMBINATION CANCER THERAPY WITH PENTAAZA MACROCYCLIC RING COMPLEX AND HORMONE THERAPY AGENT” (Galera Labs, LLC, priority 2020, published 2023)", "key": {"T47D-HTR cells [1]": {"tested_on": "T47D-HTR cells", "test": "Clonogenic cell survival, hydroxy-Tam-resistant T47D-HTR cells", "type": "cell-based, human", "details": "5 μM GC4419 for 5 days", "protocol": "Clonogenic cell survival assay. For the clonogenic survival analysis, exponentially growing cells were replated using appropriate dilutions, and clonogenic survival was evaluated after 14 days in regular growth medium. Cells were stained with crystal violet, and colonies of >50 cells were counted and utilized to calculate clonogenic survival^46.\nTo test parameters indicative of oxidative stress, a clonogenic assay with hydroxy-Tam and antioxidant treatments was performed. Cells were plated at a density of 50,000 cells per 60-mm dish and treated with 1 μM hydroxy-Tam (Sigma) and 5 μM GC4419 (Galera Therapeutics) for a total of 120 h. This protocol was repeated with a fresh medium change every 24 h for 5 days. On day 6, the cells were trypsinized, counted, and replated in control medium using appropriate dilutions, and clonogenic survival was evaluated."}, "MCF7-HTR cells": {"tested_on": "MCF7-HTR cells", "test": "Ki-67 staining, MCF7-HTR cells", "type": "cell-based, human", "details": "5 μM GC4419 and/or 1 μM 4-hydroxy-Tam for 5 days", "text": "(§1) With respect to FIG. 16a, the data from FIG. 7i, where MCF7-HTR cells were stained for Ki-67, as well as DAPI, were counted with ImageJ and quantified for average Ki-67 intensity as shown in the bar graph. With respect to FIGS. 16b and 16c, T47D and T47D-HTR cells were stained for Ki-67 as well as DAPI, and particles in the nucleus were counted with ImageJ and quantified for average Ki-67 intensity as shown in the bar graph. In FIGS. 16d and 16e, MCF7-HTR cells, and in FIGS. 16f and 16g, T47D-HTR cells, were treated with 5 μM GC4419 and/or 1 μM 4-hydroxy-Tam for 5 days, and then stained for Ki-67 as well as DAPI. Quantifications of average Ki-67 intensity are shown in the bar graphs. All experiments were done in triplicate. Error bars represent ±1 SEM. ***p<0.001. Representative images are shown.\n(§2) Cells seeded on glass coverslips were fixed in 4% paraformaldehyde and then blocked with 1% BSA and 10% normal goat serum in 1×PBS. Cells were incubated with anti-Ki-67 (c-bioscience) antibody in 1×PBS followed by incubation with goat anti-rabbit IgG conjugated with Alexa Fluor 647 (Invitrogen) in 1×PBS with 5% goat serum. Cells were washed in 1×PBS, mounted, and imaged with a fluorescence microscope. Fluorescence images were captured using a laser scanning confocal microscope (Nikon A1R). The paired images in all the figures were collected at the same gain and offset settings. […]"}, "T47D-HTR cells [2]": {"tested_on": "T47D-HTR cells", "test": "Ki-67 staining, T47D-HTR cells", "type": "cell-based, human", "details": "5 μM GC4419 and/or 1 μM 4-hydroxy-Tam for 5 days", "text": "as §1, §2"}, "MCF7-MnSOD^K68Q cells": {"tested_on": "MCF7-MnSOD^K68Q cells", "test": "Ki-67 staining, MCF7-MnSOD^K68Q cells", "type": "cell-based, human", "details": "5 μM GC4419 and/or 1 μM 4-hydroxy-Tam for 5 days", "protocol": "MCF7-MnSOD^K68Q cells (in FIGS. 17a and 17b) and T47D-MnSOD^K68Q cells (in FIGS. 17c and 17d) were treated with 5 μM GC4419 and/or 1 μM 4-hydroxy-Tam for 5 days, and then stained for Ki-67 as well as DAPI. Quantifications of average Ki-67 intensity are shown in the bar graphs. In FIG. 17e, MCF7 and MCF7-HTR cells were implanted into both hind limbs of nude mice and tumor volumes were measured every 3 days for 6 weeks and the number of tumors that successfully implanted versus the total number of mice infected with MCF7 and MCF7-HTR as well as the average tumor weight and tumor size are shown. Representative images are shown. All experiments were done in triplicate. Error bars represent ±1 SEM. ***p<0.001.\nCells seeded on glass coverslips were fixed in 4% paraformaldehyde and then blocked with 1% BSA and 10% normal goat serum in 1×PBS. Cells were incubated with anti-Ki-67 (c-bioscience) antibody in 1×PBS followed by incubation with goat anti-rabbit IgG conjugated with Alexa Fluor 647 (Invitrogen) in 1×PBS with 5% goat serum. Cells were washed in 1×PBS, mounted, and imaged with a fluorescence microscope. Fluorescence images were captured using a laser scanning confocal microscope (Nikon A1R). The paired images in all the figures were collected at the same gain and offset settings. Post-collection processing was applied uniformly to all paired images."}, "LNCaP-ENZR cells": {"tested_on": "LNCaP-ENZR cells", "test": "Clonogenic cell survival, LNCaP-ENZR cells", "type": "cell-based", "details": "ENZ with GC4419 (20 μM) for 5 days", "protocol": "In FIG. 21(a), clonogenic cell survival experiments were performed in LNCaP-ENZR (left two bars) and LNCaP-MnSOD^K68Q (right two bars) treated with ENZ, with or without GC4419 (20 μM) for 5 days. […] Tumor volumes were measured three times a week for 46 days. For each group n=10. Error bars ±1 SEM. All experiments done in triplicate. **p<0.01.\nTo address whether there is a link between MnSOD-K68-Ac and ENZR, two ENZ sensitive prostate tumor cell lines were used, LNCaP or 22RV1, which were cultured in 5 μM of ENZ for 3 weeks and then continuously grown at 10 μM, using an established method^91 to select for ENZR cells. […] Since K68-Ac alters the surface charge at the MnSOD tetramerization interface, we assessed the oligomerization state of MnSOD in LNCaP-ENZR cells."}, "MCF7-Cispl-R cells [3]": {"tested_on": "MCF7-Cispl-R cells", "test": "Cell ROS levels, MCF7-Cispl-R cells", "type": "cell-based, human", "details": "GC4419 exposure; data not shown", "protocol": "FIGS. 27a-27c are an image and graphs showing that MnSOD-Ac-K68/HIF2α dysregulation directs PanR (resistance to cancer therapeutics). […] In FIG. 27b, ROS was measured in MCF7-Cispl-R cells, compared with MCF7 cells, using an Amplex Red assay. In FIG. 27c, MCF7 and MCF7-MnSOD^K68Q cells were measured by clonogenic cell survival assays, without and with Cispl exposure, and infected with scrambled (C) or HIF2α shRNA. All experiments were done in triplicate. Error bars are ±1 SEM. * p<0.05.\n(§3) Aberrant HIF2α levels promote lineage plasticity, leading to chemoresistance and metastasis. […] Thus, MCF7 cells were selected for cisplatin resistance (Cispl-R) by 3 months of exposure to 5 μM Cispl."}, "MCF7-Cispl-R cells [4]": {"tested_on": "MCF7-Cispl-R cells", "test": "SOX2 and OCT4 levels, MCF7-Cispl-R cells", "type": "cell-based, human", "details": "MCF7-Cispl-R treated with GC4419; data not shown", "protocol": "as §3"}, "MCF7-Cispl-R cells [5]": {"tested_on": "MCF7-Cispl-R cells", "test": "Cisplatin sensitivity, MCF7-Cispl-R cells", "type": "cell-based, human", "details": "MCF7-Cispl-R treated with GC4419"}, "[6]": {"tested_on": "Sirt3^−/−-MT-SIRT3^WT tumor cells", "test": "Mammary allograft tumor growth (bioluminescence), Sirt3^−/−-MT-SIRT3^WT", "type": "in vivo", "details": "Sirt3^−/−-MT-SIRT3^WT allografts, nude mice, IP", "protocol": "Mice were subsequently injected with luciferin potassium (120 mg/kg) every week and signal intensity will be quantified. Error bars represent one SD from the mean.\nThese cell lines were subsequently infected with and selected to express either a SIRT3 wild-type (Sirt3^−/−-MT-SIRT3^WT) or deacetylation null (Sirt3^−/−-MT-SIRT3^DN) gene and a lenti-luciferase to assess tumor growth by bioluminescence. Allograft tumor mice were split into four groups: (1) control, untreated Sirt3^−/−-MT-SIRT3^DN; (2) GC4419 treated Sirt3^−/−-MT-SIRT3^DN; (3) control, untreated Sirt3^−/−-MT-SIRT3^WT; and (4) GC4419 treated Sirt3^−/−-MT-SIRT3^WT."}, "rat": {"tested_on": "rat", "details": "rat model; cited from earlier work"}, "[7]": {"tested_on": "head-and-neck cancer patients", "details": "head-and-neck cancer patients undergoing chemoradiation therapy; cited from earlier work"}}, "note": "Entries after “also recorded” stand apart in the source; their conditions may differ.", "data": [{"smiles": "[Cl][Mn][Cl].c1cc2nc(c1)CN[C@H]1CCCC[C@@H]1NCCN[C@H]1CCCC[C@@H]1NC2", "note": "[GC4419]", "values": [{"measurement": "sensitivity to hydroxy-Tam (clonogenic cell survival)", "setting": "T47D-HTR cells [1]", "value": "became sensitive to hydroxy-Tam"}, {"measurement": "Ki-67 staining", "setting": "MCF7-HTR cells", "value": "exhibited decreased Ki-67 IHC staining"}, {"measurement": "Ki-67 staining", "setting": "T47D-HTR cells [2]", "value": "exhibited decreased Ki-67 IHC staining; also recorded: decreased Ki-67 levels"}, {"measurement": "Ki-67 staining", "setting": "MCF7-MnSOD^K68Q cells", "value": "reversed the increase in Ki-67 IHC staining; also recorded: decreased Ki-67 levels"}, {"measurement": "tumor cell survival in the presence of ENZ (clonogenic)", "setting": "LNCaP-ENZR cells", "value": "significant decrease in tumor cell survival in the presence of ENZ; also recorded: reversed the ENZR"}, {"measurement": "cell ROS levels", "setting": "MCF7-Cispl-R cells [3]", "value": "decreased cell ROS levels"}, {"measurement": "SOX2 and OCT4 levels", "setting": "MCF7-Cispl-R cells [4]", "value": "decreased SOX2 and OCT4 levels"}, {"measurement": "cisplatin resistance phenotype", "setting": "MCF7-Cispl-R cells [5]", "value": "converted the Cispl-R cells to a sensitive phenotype"}, {"measurement": "allograft tumor growth", "setting": "[6]", "value": "no change in tumor growth was observed"}, {"measurement": "VEGFr inhibitor-induced pulmonary disease", "setting": "rat", "value": "attenuate VEGFr inhibitor-induced pulmonary disease"}, {"measurement": "oral mucositis", "setting": "[7]", "value": "reduce oral mucositis"}]}]}
